Laboratory results published in BigSolDB 2.1.

CC(C)(C)NC[C@H](O)COc1nsnc1N1CCOCC1.O=C(O)/C=C\C(=O)O
Details | solubility (mole fraction)
in 2-methyltetrahydrofuran, 293.2 K | 0.0001
in 2-methyltetrahydrofuran, 303.2 K | 0.00017
in 2-methyltetrahydrofuran, 313.2 K | 0.00038
in 2-methyltetrahydrofuran, 323.2 K | 0.00067
in 2-methyltetrahydrofuran, 333.2 K | 0.0013
in acetone, 281.1 K | 0.00048
in acetone, 288.3 K | 0.00056
in acetone, 292.8 K | 0.00065
in acetone, 301.9 K | 0.00089
in acetone, 313.3 K | 0.00121
in acetone, 323.1 K | 0.00166
in cyrene, 284 K | 0.00047
in cyrene, 286.1 K | 0.00054
in cyrene, 289.8 K | 0.00075
in cyrene, 292.4 K | 0.001
in cyrene, 301.1 K | 0.00146
in cyrene, 312.2 K | 0.0023
in cyrene, 323.7 K | 0.00379
in cyrene, 332 K | 0.0055
in dimethyl isosorbide, 282.6 K | 0.00022
in dimethyl isosorbide, 289.1 K | 0.00034
in dimethyl isosorbide, 297.5 K | 0.00052
in dimethyl isosorbide, 309.7 K | 0.00072
in dimethyl isosorbide, 325.9 K | 0.00117
in dimethyl isosorbide, 330.9 K | 0.00151
in ethanol, 280.1 K | 0.00105
in ethanol, 285 K | 0.0012
in ethanol, 290.8 K | 0.00145
in ethanol, 302.3 K | 0.00217
in ethanol, 312.8 K | 0.00319
in ethanol, 322.7 K | 0.00471
in ethanol, 329.8 K | 0.00648
in isopropanol, 279.5 K | 0.00013
in isopropanol, 282.9 K | 0.00014
in isopropanol, 290.9 K | 0.00018
in isopropanol, 293.6 K | 0.00025
in isopropanol, 298.8 K | 0.00037
in isopropanol, 313.7 K | 0.0006
in isopropanol, 321.7 K | 0.00097
in isopropanol, 330.1 K | 0.00143
in n-butanol, 278.3 K | 0.00028
in n-butanol, 281.7 K | 0.00034
in n-butanol, 284.8 K | 0.00038
in n-butanol, 289.6 K | 0.00049
in n-butanol, 303.2 K | 0.00075
in n-butanol, 305.1 K | 0.00087
in n-butanol, 309.1 K | 0.00102
in n-butanol, 316.3 K | 0.00144
in n-butanol, 321.4 K | 0.00178
in n-butanol, 328.7 K | 0.00251
in water, 286 K | 0.00245
in water, 293.1 K | 0.00277
in water, 300.5 K | 0.00319
in water, 305 K | 0.00352
in water, 313.9 K | 0.00449
in water, 320.8 K | 0.00572
in water, 325.8 K | 0.00694
in water, 327.2 K | 0.0074
